# Target: T1, human homomeric α1 GlyR (Homo sapiens, UniProt P23415)
# T1 construct: expressed in transfected cells
# T1 sequence (P23415 29-457): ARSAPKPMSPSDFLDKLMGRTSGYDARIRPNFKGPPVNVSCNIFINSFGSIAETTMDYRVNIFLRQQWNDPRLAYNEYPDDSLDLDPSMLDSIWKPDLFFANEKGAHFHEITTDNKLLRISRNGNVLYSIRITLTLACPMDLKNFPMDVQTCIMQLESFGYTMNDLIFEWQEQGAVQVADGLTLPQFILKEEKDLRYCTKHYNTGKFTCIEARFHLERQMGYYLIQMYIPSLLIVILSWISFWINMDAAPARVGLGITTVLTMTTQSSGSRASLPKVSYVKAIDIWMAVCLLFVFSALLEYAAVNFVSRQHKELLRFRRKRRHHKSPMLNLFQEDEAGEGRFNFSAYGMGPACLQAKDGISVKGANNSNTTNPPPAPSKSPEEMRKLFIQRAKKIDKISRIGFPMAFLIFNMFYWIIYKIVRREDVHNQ
# Experiment: Functional glycine receptor assay (FLIPR Membrane Potential Assay)
# Type: cell-based
# Design: antagonist activity at GlyR (in words): dose or concentration left out as unconfirmed
# Conditions: 30 uM concentration of test compound
row,Substance,inhibition of glycine responses
1,10-Benzyloxy-isoGC-6-benzoate [Compound 17],39%

# Same assay, conditions: 100 μM test compound; 100 μM glycine-induced response; α1 GlyR-HEK293 cells; Table 2
row,Substance,% inhibition
1,1-Methylcarbamoyloxy-10-benzyloxy-GC [Compound 39],NI (Inhibition below 20% is characterized as no inhibition (NI))
2,7-tert-Butylcarbamoyloxy-10-benzyloxy-GC [Compound 35],29%
3,7-Methylcarbamoyloxy-10-(4-methoxy-benzyloxy)-GC [Compound 44],NI (Inhibition below 20% is characterized as no inhibition (NI))
4,7-tert-Butylcarbamoyloxy-10-(4-methoxy-benzyloxy)-GC [Compound 45],39%
5,7-(Morpholine-4-carbonyloxy)-10-(4-methoxy-benzyloxy)-GC [Compound 46],NI (Inhibition below 20% is characterized as no inhibition (NI))
6,7-(Piperidine-carbonyloxy)-10-(4-methoxy-benzyloxy)-GC [Compound 47],29%
7,1-(Piperidine-carbonyloxy)-10-(4-methoxy-benzyloxy)-GC [Compound 52],NI (Inhibition below 20% is characterized as no inhibition (NI))
8,1-tert-Butylcarbamoyloxy-10-(4-methoxy-benzyloxy)-GC [Compound 50],33%
9,7-Methylcarbamoyloxy-10-benzyloxy-GC [Compound 34],NI (Inhibition below 20% is characterized as no inhibition (NI))
10,1-tert-Butylcarbamoyloxy-10-benzyloxy-GC [Compound 40],42%
11,1-(Piperidine-carbonyloxy)-10-benzyloxy-GC [Compound 42],31%
12,1-Methylcarbamoyloxy-10-(4-methoxy-benzyloxy)-GC [Compound 49],NI (Inhibition below 20% is characterized as no inhibition (NI))
13,1-(Morpholine-4-carbonyloxy)-10-(4-methoxy-benzyloxy)-GC [Compound 51],NI (Inhibition below 20% is characterized as no inhibition (NI))
14,7-(Morpholine-4-carbonyloxy)-10-benzyloxy-GC [Compound 36],NI (Inhibition below 20% is characterized as no inhibition (NI))
15,1-(Morpholine-4-carbonyloxy)-10-benzyloxy-GC [Compound 41],NI (Inhibition below 20% is characterized as no inhibition (NI))
16,7-(Piperidine-carbonyloxy)-10-benzyloxy-GC [Compound 37],NI (Inhibition below 20% is characterized as no inhibition (NI))

# Same assay, conditions: 100 μM test compound; 100 μM glycine-induced response; α1 GlyR-HEK293 cells; Table 3
row,Substance,% inhibition
1,1-tert-Butylcarbamoyloxy-GC [Compound 58],71%
2,1-(Piperidine-carbonyloxy)-GC [Compound 60],33%
3,7-(Morpholine-4-carbonyloxy)-GC [Compound 55],44%
4,1-Methylcarbamoyloxy-GC [Compound 57],76%
5,7-tert-Butylcarbamoyloxy-GC [Compound 54],NI (Inhibition below 20% is characterized as no inhibition (NI))
6,7-(Piperidine-carbonyloxy)-GC [Compound 56],34%
7,1-(Morpholine-4-carbonyloxy)-GC [Compound 59],NI (Inhibition below 20% is characterized as no inhibition (NI))
8,7-Methylcarbamoyloxy-GC [Compound 53],NI (Inhibition below 20% is characterized as no inhibition (NI))

# Same assay, conditions: 100 μM test compound; 100 μM glycine-induced response; α1 GlyR-HEK293 cells; Table 4
row,Substance,% inhibition
1,10-(2-Pyridinyl-methoxy)-GC [Compound 25],75%
2,10-(4-Methoxy-benzyloxy)-GC [Compound 24],52%
3,10-Benzyloxy-GC-7-benzoate [Compound 21],45%
4,10-(4-Methoxy-benzyloxy)-GC-7-benzoate [Compound 26],35%
5,10-(4-Methoxy-benzyloxy)-GC-1-benzoate [Compound 28],NI (Inhibition below 20% is characterized as no inhibition (NI))
6,GC-1-benzoate [Compound 32],NI (Inhibition below 20% is characterized as no inhibition (NI))
7,10-Benzyloxy-GC-1-benzoate [Compound 23],60%
8,10-Benzyloxy-GC [Compound 16],59%
9,GC-7-benzoate [Compound 30],NI (Inhibition below 20% is characterized as no inhibition (NI))
10,10-(2-Pyridinyl-methoxy)-GC-7-benzoate [Compound 29],51%

# Same assay, conditions: 100 μM test compound; response induced by 100 μM glycine; α1 GlyR-HEK293 cells; Table 5
row,Substance,% inhibition
1,"10-Benzyloxy-isoGC-1,6-bisacetate [Compound 19]",21%
2,10-(4-Methoxy-benzyloxy)-isoGC-6-benzoate [Compound 27],49%
3,"10-Benzyloxy-isoGC-1,6-bisbenzoate [Compound 22]",42%
4,10-Benzyloxy-isoGC-6-benzoate [Compound 17],90%
5,IsoGC-6-benzoate [Compound 31],63%
6,"10-(4-Methoxy-benzyloxy)-isoGC-1,6-bisacetate [Compound 20]",36%

# Same assay, conditions: derivatives as printed
row,Substance,antagonist activity at GlyR (in words)
1,GC-1-benzoate [Compound 32],complete loss in activity
2,GC-7-benzoate [Compound 30],complete loss in activity

# Same assay, conditions: derivatives at a concentration of 100 mM; 100 mM glycine
row,Substance,inhibition of the glycine responses
1,10-(2-Pyridinyl-methoxy)-GC [Compound 25],75%
2,1-tert-Butylcarbamoyloxy-GC [Compound 58],ca. 70%
3,10-Benzyloxy-isoGC-6-benzoate [Compound 17],90%
4,1-Methylcarbamoyloxy-GC [Compound 57],ca. 70%
